Measured values: patent US10149472B2, “Chitin oligomers for use in promoting non-leguminous plant growth and development” (Wisconsin Alumni Research Foundation, priority 2015, dated 2018)

Test system: Rice
Assay: Seed treatment of rice in vitro (plates)
Type: in vivo
Conditions: seed coating 10^−6 M; 33 days; vs ethanol control; FIG. 10
Experimental: Rice seeds were sterilized using 2% bleach. The sterilized seeds were then divided among 3 treatment groups of 10 seeds each into 15 ml falcon tubes. To the control tube, 0.5% ethanol in water was added. To the CO4 tube, 100 μl of 10^−6 M CO4 solution was added. To the CO8 tube, 100 μl of 10^−6 M CO8 solution was added. Each tube was then shaken to coat the seeds. The coated seeds were then placed on sterile Petri dishes in a hood and were left to dry overnight in the hood. The seeds were then germinated on damp germination paper in sterile Petri dishes for 5 days. The resulting seedlings were transferred to Fahräeus medium plates containing damp germination paper, and the plates were wrapped in Parafilm®. The roots part of the plate was covered with aluminum foil. The plants were grown at room temperature under continuous light for 33 days. The length of the shoot and root systems was measured for all plants.

Structure (SMILES): CC(=O)N[C@H]1[C@H](O[C@H]2[C@H](O)[C@@H](NC(C)=O)C(O)O[C@@H]2CO)O[C@H](CO)[C@@H](O[C@@H]2O[C@H](CO)[C@@H](O[C@@H]3O[C@H](CO)[C@@H](O)[C@H](O)[C@H]3NC(C)=O)[C@H](O)[C@H]2NC(C)=O)[C@@H]1O (some centres unmarked) [CO4, tetra-N-acetylchitotetraose]
- root system length: significantly increased
- shoot length: significantly increased
